Target: T1, human RXFP1 (Homo sapiens, UniProt Q9HBX9)
T1 construct: expressed in transfected cells
T1 sequence (Q9HBX9 1-757): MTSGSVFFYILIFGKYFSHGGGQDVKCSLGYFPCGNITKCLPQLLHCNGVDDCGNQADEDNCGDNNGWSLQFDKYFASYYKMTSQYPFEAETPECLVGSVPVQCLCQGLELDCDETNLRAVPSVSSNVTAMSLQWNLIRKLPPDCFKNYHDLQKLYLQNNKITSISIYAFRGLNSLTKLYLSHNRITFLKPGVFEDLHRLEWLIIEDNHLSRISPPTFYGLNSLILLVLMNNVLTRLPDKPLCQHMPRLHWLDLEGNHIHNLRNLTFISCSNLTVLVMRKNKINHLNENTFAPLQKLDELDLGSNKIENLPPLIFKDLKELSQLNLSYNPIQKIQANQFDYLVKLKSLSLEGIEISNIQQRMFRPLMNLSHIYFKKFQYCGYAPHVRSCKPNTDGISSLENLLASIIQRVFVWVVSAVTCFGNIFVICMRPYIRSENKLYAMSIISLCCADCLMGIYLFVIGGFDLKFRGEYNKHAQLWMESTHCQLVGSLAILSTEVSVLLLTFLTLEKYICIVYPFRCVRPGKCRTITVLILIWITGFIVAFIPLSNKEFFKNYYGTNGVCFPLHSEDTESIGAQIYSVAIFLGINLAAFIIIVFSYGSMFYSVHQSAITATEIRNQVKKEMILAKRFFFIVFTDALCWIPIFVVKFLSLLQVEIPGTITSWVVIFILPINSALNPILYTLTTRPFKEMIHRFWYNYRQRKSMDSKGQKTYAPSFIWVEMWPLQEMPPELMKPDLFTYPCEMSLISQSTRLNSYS
Assay: hRXFP1 HEK293 cAMP assay (HTRF)
Format: cell-based
Settings: HEK293 cells stably expressing human RXFP1; 30 min at rt; intracellular cAMP by HTRF
Method in brief: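 HEK293 cells stably expressing human RXFP1 treated 30 min at rt with compound (0.010 nM to 50 μM, 2% DMSO) in HBSS/HEPES buffer with 0.5 mM IBMX. Intracellular cAMP measured by HTRF (665/590 nm ratio) against a cAMP standard curve; potency fitted by 4-parameter logistic.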

EC50 [nM]	SMILES
320	COc1ccc(C2=NOC3CC(C(C)(C)O)CC23)cc1C(=O)Nc1c(C(=O)Nc2ccc(F)c(C(F)(F)F)c2)sc2cc(C(F)(F)F)ccc12 (single isomer, unassigned) [Example 55, N-(4-fluoro-3-(trifluoromethyl)phenyl)-3-(5-(5-(2-hydroxypropan-2-yl)-3a, 5,6,6a-tetrahydro-4H-cyclopenta[d]isoxazol-3-yl)-2-methoxybenzamido)-6-(trifluoromethyl)benzo[b]thiophene-2-carboxamide]
1400	COc1ccc(C(=O)N2CC3(COC3)C2)cc1C(=O)Nc1c(C(=O)Nc2ccc(F)c(C(F)(F)F)c2)sc2cc(C3CC3)ncc12 [Example 238, 6-cyclopropyl-N-(4-fluoro-3-(trifluoromethyl)phenyl)-3-(2-methoxy-5-(2-oxa-6-azaspiro[3.3]heptane-6-carbonyl)benzamido) thieno[3,2-c]pyridine-2-carboxamide]
1140	COc1ccc(C(=O)N2CCC[C@@H](O)C2)cc1C(=O)Nc1c(C(=O)Nc2ccc(F)c(C(F)(F)F)c2)sc2cc(C(F)(F)F)ccc12 [Example 219, (R)-N-(4-fluoro-3-(trifluoromethyl)phenyl)-3-(5-(3-hydroxy-piperidine-1-carbonyl)-2-methoxy-benzamido)-6-(trifluoromethyl) benzo[b] thiophene-2-carboxamide]
498	COc1ccc(C2=NOC3COCC23)cc1C(=O)Nc1c(C(=O)Nc2ccc(F)c(C(F)(F)F)c2)sc2cc(C(F)(F)F)ccc12 (single isomer, unassigned) [Example 255, 3-(5-{3aH,4H,6H,6aH-furo[3,4-d][1,2]oxazol-3-yl}-2-methoxy-benzamido)-N-[4-fluoro-3-(trifluoromethyl)phenyl]-6-(trifluoromethyl)-1-benzothiophene-2-carboxamide]
3770	COc1ccc(C(=O)NCC(C)(C)O)cc1C(=O)Nc1c(C(=O)Nc2ccc(F)c(C(F)(F)F)c2)sc2cc(C(F)(F)F)ccc12 [Example 237, N3-(2-((4-fluoro-3-(trifluoromethyl)phenyl)carbamoyl)-6-(trifluoromethyl)benzo[b]thiophen-3-yl)-N1-(2-hydroxy-2-methylpropyl)-4-methoxy-isophthalamide]
2180	COc1ccc(C2CCCN(CC(C)C)C2)cc1C(=O)Nc1c(C(=O)Nc2ccc(F)c(C(F)(F)F)c2)sc2cc(C(F)(F)F)ccc12 (centres unmarked) [Example 89, N-(4-fluoro-3-(trifluoromethyl)phenyl)-3-(5-(1-isobutylpiperidin-3-yl)-2-methoxy-benzamido)-6-(trifluoromethyl) benzo[b] thiophene-2-carboxamide]
746	COc1ccc(N2CCC3(CN(CCS(C)(=O)=O)C3)C2)cc1C(=O)Nc1c(C(=O)Nc2ccc(F)c(C(F)(F)F)c2)sc2cc(C(F)(F)F)ccc12 [Example 194, N-(4-fluoro-3-(trifluoromethyl)phenyl)-3-(2-methoxy-5-(2-(2-(methylsulfonyl)ethyl)-2,6-diazaspiro[3.4]octan-6-yl)benzamido)-6-(trifluoromethyl) benzo[b] thiophene-2-carboxamide]
593	COc1ccc(N2CCCC(NCC(N)=O)C2)cc1C(=O)Nc1c(C(=O)Nc2ccc(F)c(C(F)(F)F)c2)sc2cc(C(F)(F)F)ccc12 (stereo in doubt) [Example 112, (R)-3-(5-(3-((2-amino-2-oxoethyl)amino)piperidin-1-yl)-2-methoxy-benzamido)-N-(4-fluoro-3-(trifluoromethyl)phenyl)-6-(trifluoromethyl) benzo[b] thiophene-2-carboxamide]
1560	COc1ccc(-c2cc(C(=O)O)ccc2F)cc1C(=O)Nc1c(C(=O)Nc2ccc(F)c(C(F)(F)F)c2)sc2ccccc12 [Example 15, 6-fluoro-3′-((2-((4-fluoro-3-(trifluoromethyl)phenyl)carbamoyl)benzo[b]thiophen-3-yl)carbamoyl)-4′-methoxy-[1, 1′-biphenyl]-3-carboxylic acid]
2250	COc1ccc(C2CC2C(=O)N2CC(C(C)(C)O)C2)cc1C(=O)Nc1c(C(=O)Nc2ccc(F)c(C(F)(F)F)c2)sc2cc(C(F)(F)F)ccc12 (centres unmarked) [Example 169, N-[4-fluoro-3-(trifluoromethyl)phenyl]-3-(5-{2-[3-(2-hydroxypropan-2-yl)azetidine-1-carbonyl]cyclopropyl}-2-methoxy-benzamido)-6-(trifluoromethyl)-1-benzothiophene-2-carboxamide]
360	COc1ccc(C2=NOC3CN(C(=O)OC(C)(C)C)CC23)cc1C(=O)Nc1c(C(=O)Nc2ccc(F)c(C(F)(F)F)c2)sc2cc(C(F)(F)F)ccc12 (single isomer, unassigned) [Example 244, tert-butyl 3-(3-((2-((4-fluoro-3-(trifluoromethyl)phenyl)carbamoyl)-6-(trifluoromethyl)benzo[b]thiophen-3-yl)carbamoyl)-4-methoxyphenyl)-3a,4,6,6a-tetrahydro-5H-pyrrolo[3,4-d]isoxazole-5-carboxylate]
135	COc1ccc(C(=O)N2CCC(O)CC2)cc1C(=O)Nc1c(C(=O)Nc2ccc(F)c(C(F)(F)F)c2)sc2cc(C(F)(F)F)ccc12 [Example 132, N-(4-fluoro-3-(trifluoromethyl)phenyl)-3-(5-(4-hydroxy-piperidine-1-carbonyl)-2-methoxy-benzamido)-6-(trifluoromethyl) benzo[b] thiophene-2-carboxamide]
1290	COc1ccc(N2CCC(NCCS(C)(=O)=O)C2)cc1C(=O)Nc1c(C(=O)Nc2ccc(F)c(C(F)(F)F)c2)sc2cc(C(F)(F)F)ccc12 (centres unmarked) [Example 67, N-(4-fluoro-3-(trifluoromethyl)phenyl)-3-(2-methoxy-5-(3-((2-(methylsulfonyl)ethyl)amino)pyrrolidin-1-yl)benzamido)-6-(trifluoromethyl) benzo[b] thiophene-2-carboxamide]
374	COc1ccc(C(=O)N2CC[C@@H](O)C2)cc1C(=O)Nc1c(C(=O)Nc2ccc(F)c(C(F)(F)F)c2)sc2cc(C(F)(F)F)ccc12 [Example 175, (R)-N-(4-fluoro-3-(trifluoromethyl)phenyl)-3-(5-(3-hydroxy-pyrrolidine-1-carbonyl)-2-methoxy-benzamido)-6-(trifluoromethyl) benzo[b] thiophene-2-carboxamide]
254	COc1ccc(-c2ccc(N3CCOCC3)nc2)cc1C(=O)Nc1c(C(=O)Nc2ccc(F)c(C(F)(F)F)c2)sc2cc(C(F)(F)F)ccc12 [Example 127, N-(4-fluoro-3-(trifluoromethyl)phenyl)-3-(2-methoxy-5-(6-morpholino-pyridin-3-yl)benzamido)-6-(trifluoromethyl) benzo[b] thiophene-2-carboxamide]
865	COc1ccc(C2CC2C(=O)N2CC(S(C)(=O)=O)C2)cc1C(=O)Nc1c(C(=O)Nc2ccc(F)c(C(F)(F)F)c2)sc2cc(C(F)(F)F)ccc12 (single isomer, unassigned) [Example 164, N-[4-fluoro-3-(trifluoromethyl)phenyl]-3-{5-[2-(3-methane-sulfonylazetidine-1-carbonyl)cyclopropyl]-2-methoxy-benzamido}-6-(trifluoromethyl)-1-benzothiophene-2-carboxamide]
857	COc1ccc(-c2cc(CN(C)C)on2)cc1C(=O)Nc1c(C(=O)Nc2ccc(F)c(C(F)(F)F)c2)sc2cc(C(F)(F)F)ccc12 [Example 273, 3-(5-(5-((dimethylamino)methyl)isoxazol-3-yl)-2-methoxy-benzamido)-N-(4-fluoro-3-(trifluoromethyl)phenyl)-6-(trifluoromethyl) benzo[b] thiophene-2-carboxamide]
1430	COc1ccc(C2CCN(CC(N)=O)C2)cc1C(=O)Nc1c(C(=O)Nc2ccc(F)c(C(F)(F)F)c2)sc2cc(C(F)(F)F)ccc12 (centres unmarked) [Example 147, 3-(5-(1-(2-amino-2-oxoethyl)pyrrolidin-3-yl)-2-methoxy-benzamido)-N-(4-fluoro-3-(trifluoromethyl)phenyl)-6-(trifluoromethyl) benzo[b] thiophene-2-carboxamide]
405	COc1ccc(C(=O)N2CC[C@H](O)C2)cc1C(=O)Nc1c(C(=O)Nc2ccc(F)c(C(F)(F)F)c2)sc2cc(C(F)(F)F)ccc12 [Example 174, (S)-N-(4-fluoro-3-(trifluoromethyl)phenyl)-3-(5-(3-hydroxy-pyrrolidine-1-carbonyl)-2-methoxy-benzamido)-6-(trifluoromethyl) benzo[b] thiophene-2-carboxamide]
122	COc1ccc(C2=NOC3CC(NC(=O)CO)CC23)cc1C(=O)Nc1c(C(=O)Nc2ccc(F)c(C(F)(F)F)c2)sc2cc(C(F)(F)F)ccc12 (single isomer, unassigned) [Example 263, N-[4-fluoro-3-(trifluoromethyl)phenyl]-3-{5-[5-(2-hydroxyacetamido)-3aH,4H,5H,6H, 6aH-cyclopenta[d] [1,2]oxazol-3-yl]-2-methoxy-benzamido}-6-(trifluoromethyl)-1-benzothiophene-2-carboxamide]

Reference: US20260265233A1, “BENZOTHIOPHENE DERIVATIVES AS RXFP1 AGONISTS” (BRISTOL-MYERS SQUIBB COMPANY, priority 2021, published 2026)
